# Assay results: ChEMBL document CHEMBL3352326, “Synthesis of 2,3-di- and 2,2,3-trisubstituted-3-methoxycarbonyl-γ-butyrolactones as potent antitumor agents” (Eur J Med Chem, 2015)
# The source made the active and inactive calls. No cut-off for these calls is given here.
# What was measured:
# HL-60 [1] = assay: Induction of necrosis in intact human HL60 cells assessed as cytosolic LDH release at 50 uM; format: functional, cell-based
# HL-60 [2] = assay: Induction of cell cycle arrest in human HL60 cells assessed as accumulation at G2/M phase at 10 uM after 48 hrs by propidium iodide staining based flow cytometry (reference value: 11.6%); format: functional
# [3] = Growth inhibition of human MCF7/R cells at 10 uM after 72 hrs by MTS assay; format: functional; details: MCF7R, read-out: GI
# [4] = Growth inhibition of drug resistant human HL60 cells at 10 uM after 72 hrs by MTS assay; format: functional; details: HL-60, 72 h, read-out: GI
# HL-60 [5] = assay: Induction of apoptosis in human HL60 cells assessed as dead cells level at 5 uM annexin V-PE and 7-AAD staining based by flow cytometry (reference value: 0.4%); format: functional
# HL-60 [6] = assay: Induction of necrosis in intact human HL60 cells assessed as cytosolic LDH release at 2 to 10 uM; format: functional, cell-based
# KB = assay: Growth inhibition of human KB cells at 10 uM after 72 hrs by MTS assay; format: functional; details: read-out: GI
# HL-60 [7] = assay: Induction of cell cycle arrest in human HL60 cells assessed as accumulation at G0/G1 phase at 5 uM after 48 hrs by propidium iodide staining based flow cytometry (reference value: 42.9%); format: functional
# HL-60 [8] = assay: Induction of cell cycle arrest in human HL60 cells assessed as accumulation at G0/G1 phase at 2 uM after 48 hrs by propidium iodide staining based flow cytometry (reference value: 42.9%); format: functional
# HL-60 [9] = assay: Induction of cell cycle arrest in human HL60 cells assessed as accumulation at S phase at 5 uM after 48 hrs by propidium iodide staining based flow cytometry (reference value: 45%); format: functional
# HL-60 [10] = assay: Induction of cell cycle arrest in human HL60 cells assessed as accumulation at G2/M phase at 5 uM after 48 hrs by propidium iodide staining based flow cytometry (reference value: 11.6%); format: functional
# SK-OV-3 = assay: Growth inhibition of human SKOV3 cells at 10 uM after 72 hrs by MTS assay; format: functional; details: SK-OV-3, 72 h, read-out: GI
# HL-60 [11] = assay: Induction of apoptosis in human HL60 cells assessed as late apoptosis cells level at 2 uM annexin V-PE and 7-AAD staining based by flow cytometry (reference value: 0.4%); format: functional
# HL-60 [12] = assay: Induction of apoptosis in human HL60 cells assessed as late apoptosis cells level at 5 uM annexin V-PE and 7-AAD staining based by flow cytometry (reference value: 0.4%); format: functional
# HL-60 [13] = assay: Induction of apoptosis in human HL60 cells assessed as intact cells level at 10 uM annexin V-PE and 7-AAD staining based by flow cytometry (reference value: 80.7%); format: functional
# HL-60 [14] = assay: Induction of cell cycle arrest in human HL60 cells assessed as accumulation at S phase at 10 uM after 48 hrs by propidium iodide staining based flow cytometry (reference value: 45%); format: functional
# HL-60 [15] = assay: Induction of apoptosis in human HL60 cells assessed as caspase-3 activation at 5 uM after 24 to 48 hrs by DEVD-AMC substrate based fluorescence assay; format: functional, cell-based
# HL-60 [16] = assay: Induction of apoptosis in human HL60 cells assessed as early apoptotic cells level at 10 uM annexin V-PE and 7-AAD staining based by flow cytometry (reference value: 18.5%); format: functional
# [17] = Growth inhibition of human PC3 cells at 10 uM after 72 hrs by MTS assay; format: functional; details: PC-3, 72 h, read-out: GI
# HL-60 [18] = assay: Induction of apoptosis in human HL60 cells assessed as dead cells level at 10 uM annexin V-PE and 7-AAD staining based by flow cytometry (reference value: 0.4%); format: functional
# MCF7 = assay: Growth inhibition of human MCF7 cells at 10 uM after 72 hrs by MTS assay; format: functional; details: MCF7, 72 h, read-out: GI
# HL-60 [19] = assay: Induction of apoptosis in human HL60 cells assessed as intact cells level at 5 uM annexin V-PE and 7-AAD staining based by flow cytometry (reference value: 80.7%); format: functional
# HL-60 [20] = assay: Induction of necrosis in human HL60 cells assessed as total LDH activity at 2 to 10 uM; format: functional, cell-based
# HL-60 [21] = assay: Induction of cell cycle arrest in human HL60 cells assessed as accumulation at subG1 phase at 2 uM after 48 hrs by propidium iodide staining based flow cytometry (reference value: 0.5%); format: functional
# HL-60 [22] = assay: Induction of apoptosis in human HL60 cells assessed as dead cells level at 2 uM annexin V-PE and 7-AAD staining based by flow cytometry (reference value: 0.4%); format: functional
# HL-60 [23] = assay: Induction of cell cycle arrest in human HL60 cells assessed as accumulation at subG1 phase at 10 uM after 48 hrs by propidium iodide staining based flow cytometry (reference value: 0.5%); format: functional
# [24] = Growth inhibition of human HL60 cells at 10 uM after 72 hrs by MTS assay; format: functional; details: HL-60, 72 h, read-out: GI
# HL-60 [25] = assay: Induction of apoptosis in human HL60 cells assessed as early apoptotic cells level at 2 uM annexin V-PE and 7-AAD staining based by flow cytometry (reference value: 18.5%); format: functional
# HL-60 [26] = assay: Induction of apoptosis in human HL60 cells assessed as early apoptotic cells level at 5 uM annexin V-PE and 7-AAD staining based by flow cytometry (reference value: 18.5%); format: functional
# HL-60 [27] = assay: Induction of cell cycle arrest in human HL60 cells assessed as accumulation at S phase at 2 uM after 48 hrs by propidium iodide staining based flow cytometry (reference value: 45%); format: functional
# HL-60 [28] = assay: Induction of cell cycle arrest in human HL60 cells assessed as accumulation at G2/M phase at 2 uM after 48 hrs by propidium iodide staining based flow cytometry (reference value: 11.6%); format: functional
# HL-60 [29] = assay: Induction of cell cycle arrest in human HL60 cells assessed as accumulation at subG1 phase at 5 uM after 48 hrs by propidium iodide staining based flow cytometry (reference value: 0.5%); format: functional
# HL-60 [30] = assay: Induction of cell cycle arrest in human HL60 cells assessed as accumulation at G0/G1 phase at 10 uM after 48 hrs by propidium iodide staining based flow cytometry (reference value: 42.9%); format: functional
# HL-60 [31] = assay: Induction of apoptosis in human HL60 cells assessed as late apoptosis cells level at 10 uM annexin V-PE and 7-AAD staining based by flow cytometry (reference value: 0.4%); format: functional
# [32] = Growth inhibition of human HCT116 cells at 10 uM after 72 hrs by MTS assay; format: functional; details: HCT-116, 72 h, read-out: GI
# HL-60 [33] = assay: Induction of apoptosis in human HL60 cells assessed as intact cells level at 2 uM annexin V-PE and 7-AAD staining based by flow cytometry (reference value: 80.7%); format: functional
# HL-60 [34] = assay: Induction of cell cycle arrest in human HL60 cells assessed as accumulation at G0/G1 phase at 50 nM after 48 hrs by propidium iodide staining based flow cytometry (reference value: 42.9%); format: functional
# HL-60 [35] = assay: Induction of cell cycle arrest in human HL60 cells assessed as accumulation at subG1 phase at 50 nM after 48 hrs by propidium iodide staining based flow cytometry (reference value: 0.5%); format: functional
# HL-60 [36] = assay: Induction of necrosis in intact human HL60 cells assessed as cytosolic LDH release at 1 uM; format: functional, cell-based
# HL-60 [37] = assay: Induction of apoptosis in human HL60 cells assessed as late apoptosis cells level at 100 nM annexin V-PE and 7-AAD staining based by flow cytometry (reference value: 0.4%); format: functional
# HL-60 [38] = assay: Induction of apoptosis in human HL60 cells assessed as dead cells level at 100 nM annexin V-PE and 7-AAD staining based by flow cytometry (reference value: 0.4%); format: functional
# HL-60 [39] = assay: Induction of cell cycle arrest in human HL60 cells assessed as accumulation at G2/M phase at 50 nM after 48 hrs by propidium iodide staining based flow cytometry (reference value: 11.6%); format: functional
# HL-60 [40] = assay: Induction of cell cycle arrest in human HL60 cells assessed as accumulation at S phase at 50 nM after 48 hrs by propidium iodide staining based flow cytometry (reference value: 45%); format: functional
# HL-60 [41] = assay: Induction of apoptosis in human HL60 cells assessed as intact cells level at 100 nM annexin V-PE and 7-AAD staining based by flow cytometry (reference value: 80.7%); format: functional
# HL-60 [42] = assay: Induction of apoptosis in human HL60 cells assessed as early apoptotic cells level at 100 nM annexin V-PE and 7-AAD staining based by flow cytometry (reference value: 18.5%); format: functional
smiles,measurement,setting,value
CC1=CC(=O)c2ccccc2C1=O,Activity,HL-60 [1],Active
COC(=O)C1(Cc2ccc(OC)cc2)CC(=O)OC1(C)c1ccccc1 (stereo not given),Activity,HL-60 [2],13.1%
same,inhibition of growth at 10 µM,[3],82%
same,inhibition of growth at 10 µM,[4],92%
same,Activity,HL-60 [5],0.9%
same,Activity,HL-60 [6],inactive
same,inhibition of growth at 10 µM,KB,95%
same,Activity,HL-60 [7],23.4%
same,Activity,HL-60 [8],36.3%
same,Activity,HL-60 [9],25.6%
same,Activity,HL-60 [10],12.2%
same,inhibition of growth at 10 µM,SK-OV-3,76%
same,Activity,HL-60 [11],0.65%
same,Activity,HL-60 [12],2.2%
same,Activity,HL-60 [13],40.7%
same,Activity,HL-60 [14],29.7%
same,Activity,HL-60 [15],Active
same,Activity,HL-60 [16],53.35%
same,inhibition of growth at 10 µM,[17],68%
same,Activity,HL-60 [18],1.65%
same,inhibition of growth at 10 µM,MCF7,56%
same,Activity,HL-60 [19],50.55%
same,Activity,HL-60 [20],Active
same,Activity,HL-60 [21],14.1%
same,Activity,HL-60 [22],0.35%
same,Activity,HL-60 [23],37.7%
same,inhibition of growth at 10 µM,[24],82%
same,Activity,HL-60 [25],37.65%
same,Activity,HL-60 [26],46.4%
same,Activity,HL-60 [27],24%
same,Activity,HL-60 [28],25.6%
same,Activity,HL-60 [29],38.9%
same,Activity,HL-60 [30],19.5%
same,Activity,HL-60 [31],4.25%
same,inhibition of growth at 10 µM,[32],61%
same,Activity,HL-60 [33],61.45%
COC(=O)C1(Cc2cccc(OC)c2)CC(=O)OC1c1ccccc1 (stereo not given),inhibition of growth at 10 µM,KB,0%
same,inhibition of growth at 10 µM,MCF7,12%
same,inhibition of growth at 10 µM,[24],37%
same,inhibition of growth at 10 µM,[32],14%
COc1cccc2c1C(=O)c1c(O)c3c(c(O)c1C2=O)C[C@@](O)(C(=O)CO)C[C@@H]3O[C@H]1C[C@H](N)[C@H](O)[C@H](C)O1 [DOXORUBICIN],Activity,HL-60 [34],23%
same,Activity,HL-60 [35],4.5%
same,Activity,HL-60 [36],inactive
same,Activity,HL-60 [37],3.15%
same,Activity,HL-60 [38],0.5%
same,Activity,HL-60 [39],40%
same,Activity,HL-60 [40],32.5%
same,Activity,HL-60 [41],14.7%
same,Activity,HL-60 [42],81.65%
COC(=O)C1(Cc2ccc(OC)cc2)CC(=O)OC1(C)c1cccc(C(F)(F)F)c1 (stereo not given),inhibition of growth at 10 µM,KB,38%
same,inhibition of growth at 10 µM,MCF7,46%
same,inhibition of growth at 10 µM,[24],52%
same,inhibition of growth at 10 µM,[32],30%
COC(=O)C1(Cc2ccccc2C(F)(F)F)CC(=O)OC1c1ccccc1 (stereo not given),inhibition of growth at 10 µM,KB,42%
same,inhibition of growth at 10 µM,MCF7,35%
same,inhibition of growth at 10 µM,[24],28%
same,inhibition of growth at 10 µM,[32],25%
COC(=O)C1(Cc2ccc(OC)cc2)CC(=O)OC1c1ccc(F)cc1 (stereo not given),inhibition of growth at 10 µM,KB,33%
same,inhibition of growth at 10 µM,MCF7,4%
same,inhibition of growth at 10 µM,[24],37%
same,inhibition of growth at 10 µM,[32],0%
COC(=O)C1(Cc2ccc3c(c2)OCO3)CC(=O)OC1c1cc(OC)c(OC)c(OC)c1 (stereo not given),inhibition of growth at 10 µM,KB,0%
same,inhibition of growth at 10 µM,MCF7,8%
same,inhibition of growth at 10 µM,[24],10%
same,inhibition of growth at 10 µM,[32],22%
